{"source": "patent US8629171B2", "about": "“Crystalline form of methyl ((1S)-1-((25)-2-(5-(4'-(2-((25)-1((2S)-2-((methoxycarbonyl)amino)-3-methylbutanoyl)-2-pyrrolidinyl)-1H-imidazol-2-yl)-1-pyrrolidinyl)carbonyl)-2-methylpropyl)carbamate dihydrochloride salt” (Bristol-Myers Squibb Company, priority 2007, dated 2014)", "experiment": "aqueous solubility", "assay_type": "physicochemical", "settings": "crystalline Form N-2 of the dihydrochloride salt", "note": "Counter-ions that a name gives are not always drawn.", "data": [{"compound": "COC(=O)N[C@H](C(=O)N1CCC[C@H]1c1nc(-c2ccc(-c3ccc(-c4c[nH]c([C@@H]5CCCN5C(=O)[C@@H](NC(=O)OC)C(C)C)n4)cc3)cc2)c[nH]1)C(C)C", "note": "[Compound (I), methyl ((1S)-1-(((2S)-2-(5-(4′-(2-((2S)-1-((2S)-2-((methoxycarbonyl)amino)-3-methylbutanoyl-2-pyrrolidinyl)-1H-imidazol-5-yl)-4-biphenylyl)-1H-imidazol-2-yl)-1-pyrrolidinyl)carbonyl)-2-methylpropyl)carbamatedihydrochloride salt]", "values": [{"measurement": "aqueous solubility", "result": "high"}]}]}
